In brackets after ≈: the same amount, converted by molar mass.
Key:
[1] = Clearance in dog at 1 mg/kg, iv; assay type: ADME, organism-based, Canis lupus familiaris; details: in vivo
[2] = Oral bioavailability in rat at 5 mg/kg; assay type: ADME, organism-based; details: in vivo
[3] = Cmax in dog at 2 mg/kg, po; assay type: ADME, organism-based, Canis lupus familiaris; parameters: dose 2 mg/kg, route oral; details: in vivo
[4] = MRT in cynomolgus monkey at 2 mg/kg, iv; assay type: ADME, organism-based, Macaca fascicularis; details: in vivo
[5] = AUC in mouse at 10 mg/kg; assay type: ADME, organism-based; details: in vivo
[6] = Protein binding in dog plasma; assay type: ADME, cell-free, Canis lupus familiaris; details: read-out: PPB (converted)
[7] = Aqueous solubility of the compound; assay type: physicochemical; details: aqueous medium
[8] = Tmax in dog at 2 mg/kg, po; assay type: ADME, organism-based, Canis lupus familiaris; details: in vivo
[9] = target: T1, Tyrosine-protein kinase BTK (Homo sapiens, UniProt Q06187); experiment: Inhibition of BTK in human peripheral B cells assessed as suppression of CD40/CD40L-stimulated CD69 surface expression; assay type: cell-based
T1 sequence (Q06187 whole entry): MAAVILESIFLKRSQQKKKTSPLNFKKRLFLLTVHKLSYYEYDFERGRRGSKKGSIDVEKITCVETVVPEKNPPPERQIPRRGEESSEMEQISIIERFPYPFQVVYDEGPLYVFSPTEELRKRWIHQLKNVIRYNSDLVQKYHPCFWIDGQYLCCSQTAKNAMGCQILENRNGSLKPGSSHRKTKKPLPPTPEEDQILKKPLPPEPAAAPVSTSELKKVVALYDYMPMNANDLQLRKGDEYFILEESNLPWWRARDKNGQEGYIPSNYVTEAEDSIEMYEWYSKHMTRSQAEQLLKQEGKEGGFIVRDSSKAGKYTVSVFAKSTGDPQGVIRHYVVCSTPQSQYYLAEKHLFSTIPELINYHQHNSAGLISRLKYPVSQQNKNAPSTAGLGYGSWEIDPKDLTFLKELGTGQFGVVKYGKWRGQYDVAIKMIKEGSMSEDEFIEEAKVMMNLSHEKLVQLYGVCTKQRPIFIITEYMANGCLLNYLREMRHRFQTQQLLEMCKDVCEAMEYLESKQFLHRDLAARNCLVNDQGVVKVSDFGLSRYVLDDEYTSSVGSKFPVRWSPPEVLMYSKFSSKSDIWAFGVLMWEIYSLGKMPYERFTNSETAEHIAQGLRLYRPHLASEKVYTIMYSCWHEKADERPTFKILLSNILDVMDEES

[10] = target: Cytochrome P450 3A4 (Homo sapiens, UniProt P08684); experiment: Inhibition of CYP3A4 (unknown origin); assay type: ADME
Sequence of Cytochrome P450 3A4 (P08684 whole entry): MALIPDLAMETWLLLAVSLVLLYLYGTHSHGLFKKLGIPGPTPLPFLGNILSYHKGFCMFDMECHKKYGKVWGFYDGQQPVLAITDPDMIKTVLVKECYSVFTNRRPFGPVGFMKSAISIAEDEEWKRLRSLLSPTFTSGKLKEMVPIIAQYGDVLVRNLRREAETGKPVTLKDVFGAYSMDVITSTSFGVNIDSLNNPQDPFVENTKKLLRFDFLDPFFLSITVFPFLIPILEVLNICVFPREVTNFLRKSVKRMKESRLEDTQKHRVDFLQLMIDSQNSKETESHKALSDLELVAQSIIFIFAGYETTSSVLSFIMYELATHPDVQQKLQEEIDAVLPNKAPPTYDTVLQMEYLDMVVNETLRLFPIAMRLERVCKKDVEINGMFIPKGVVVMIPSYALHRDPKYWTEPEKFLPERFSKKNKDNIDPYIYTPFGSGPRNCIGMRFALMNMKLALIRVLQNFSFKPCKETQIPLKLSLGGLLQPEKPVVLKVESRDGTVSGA

[11] = target: T1, Tyrosine-protein kinase BTK; experiment: Inhibition of BTK in human whole blood basophils assessed as suppression of FceRI/anti-IgE-stimulated CD63 surface expression; assay type: tissue-based
[12] = Clearance in mouse at 3 mg/kg, iv; assay type: ADME, organism-based; details: in vivo
[13] = target: T1, Tyrosine-protein kinase BTK; experiment: Inhibition of BTK in human Ramos-B cells assessed as suppression of BCR/anti-IgM-stimulated Ca2+ flux after 1 hr incubation in dark by FLIPR1 assay
[14] = target: T1, Tyrosine-protein kinase BTK; experiment: Inhibition of BTK in human peripheral B cells assessed as suppression of BCR/anti-IgM/IgG-stimulated CD86 surface expression; assay type: cell-based
[15] = target: T1, Tyrosine-protein kinase BTK; experiment: Inhibition of BTK in human whole blood assessed as suppression of BCR/anti-IgM/IgG-stimulated CD69 surface expression after 18 hrs with agitation by FITC-staining based FACS analysis; assay type: tissue-based
[16] = MRT in rat at 2 mg/kg, iv; assay type: ADME, organism-based; details: in vivo
[17] = Solubility of the compound in fed state stimulated intestinal fluid; assay type: ADME; details: fed state simulated intestinal fluid (FeSSIF)
[18] = Permeability of the compound at pH 5.5 by PAMPA assay; assay type: ADME; details: read-out: permeability
[19] = Volume of distribution at steady state in rat at 2 mg/kg, iv; assay type: ADME, organism-based; details: in vivo, read-out: Vdss
[20] = Permeability of the compound at pH 7.4 by PAMPA assay; assay type: ADME; details: read-out: permeability
[21] = Volume of distribution at steady state in dog at 1 mg/kg, iv; assay type: ADME, organism-based, Canis lupus familiaris; details: in vivo, read-out: Vdss
[22] = target: Voltage-gated inwardly rectifying potassium channel KCNH2 (Homo sapiens, UniProt Q12809); experiment: Inhibition of human ERG by patch clamp assay
Sequence of Voltage-gated inwardly rectifying potassium channel KCNH2 (Q12809 whole entry): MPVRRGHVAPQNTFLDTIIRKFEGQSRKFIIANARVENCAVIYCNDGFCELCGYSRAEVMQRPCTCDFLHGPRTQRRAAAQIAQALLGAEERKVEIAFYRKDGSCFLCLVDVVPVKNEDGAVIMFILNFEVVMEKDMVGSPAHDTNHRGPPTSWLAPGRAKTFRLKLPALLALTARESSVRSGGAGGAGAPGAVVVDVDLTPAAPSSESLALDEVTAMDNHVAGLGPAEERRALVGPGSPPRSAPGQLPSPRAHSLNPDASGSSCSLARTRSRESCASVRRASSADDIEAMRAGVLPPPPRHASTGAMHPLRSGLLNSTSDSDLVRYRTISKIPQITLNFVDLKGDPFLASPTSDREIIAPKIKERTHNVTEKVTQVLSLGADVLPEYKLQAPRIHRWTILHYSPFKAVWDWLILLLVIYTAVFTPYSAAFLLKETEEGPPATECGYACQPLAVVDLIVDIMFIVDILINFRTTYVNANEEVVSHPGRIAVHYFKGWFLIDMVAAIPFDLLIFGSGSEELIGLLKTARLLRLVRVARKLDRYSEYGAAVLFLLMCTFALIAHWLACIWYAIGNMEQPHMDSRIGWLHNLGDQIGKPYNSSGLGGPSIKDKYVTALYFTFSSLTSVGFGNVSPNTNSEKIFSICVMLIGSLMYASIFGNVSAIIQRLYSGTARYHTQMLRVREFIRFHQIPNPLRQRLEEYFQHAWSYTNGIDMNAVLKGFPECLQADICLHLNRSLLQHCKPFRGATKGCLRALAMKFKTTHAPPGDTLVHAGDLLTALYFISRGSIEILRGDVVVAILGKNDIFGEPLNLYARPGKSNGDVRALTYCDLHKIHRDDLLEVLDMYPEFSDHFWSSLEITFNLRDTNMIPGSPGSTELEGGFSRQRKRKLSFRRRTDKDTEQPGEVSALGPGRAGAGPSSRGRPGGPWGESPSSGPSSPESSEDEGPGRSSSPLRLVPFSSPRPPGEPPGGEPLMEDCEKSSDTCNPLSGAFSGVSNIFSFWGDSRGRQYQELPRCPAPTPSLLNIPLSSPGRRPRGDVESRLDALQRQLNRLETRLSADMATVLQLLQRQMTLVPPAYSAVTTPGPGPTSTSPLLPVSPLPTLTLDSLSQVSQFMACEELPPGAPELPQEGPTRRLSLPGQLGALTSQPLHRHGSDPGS

[23] = Cmax in mouse at 10 mg/kg, iv or po; assay type: ADME, organism-based; details: in vivo
[24] = Half life in dog at 1 mg/kg, iv; assay type: ADME, organism-based, Canis lupus familiaris; details: in vivo
[25] = target: Cytochrome P450 2D6 (Homo sapiens, UniProt P10635); experiment: Inhibition of CYP2D6 (unknown origin); assay type: ADME
Sequence of Cytochrome P450 2D6 (P10635 whole entry): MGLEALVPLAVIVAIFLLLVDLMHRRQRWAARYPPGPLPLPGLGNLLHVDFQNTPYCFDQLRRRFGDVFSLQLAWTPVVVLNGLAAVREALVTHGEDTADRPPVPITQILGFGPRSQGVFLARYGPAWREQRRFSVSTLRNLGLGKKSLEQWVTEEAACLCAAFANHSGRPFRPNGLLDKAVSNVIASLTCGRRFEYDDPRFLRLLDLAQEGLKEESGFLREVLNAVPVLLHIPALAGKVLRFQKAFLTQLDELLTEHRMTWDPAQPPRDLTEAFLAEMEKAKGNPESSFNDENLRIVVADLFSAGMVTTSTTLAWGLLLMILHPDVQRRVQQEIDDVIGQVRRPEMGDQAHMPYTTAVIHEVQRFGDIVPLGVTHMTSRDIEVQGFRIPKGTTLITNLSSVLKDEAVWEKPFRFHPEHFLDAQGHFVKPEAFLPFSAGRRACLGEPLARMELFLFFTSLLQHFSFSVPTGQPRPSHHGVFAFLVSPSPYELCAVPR

[26] = Tmax in rat at 5 mg/kg, po; assay type: ADME, organism-based; details: in vivo
[27] = AUC in cynomolgus monkey at 4 mg/kg, po; assay type: ADME, organism-based, Macaca fascicularis; details: in vivo
[28] = test system: Mus musculus; experiment: Antiathritis activity in anticollagen antibody-induced arthritis BALB/c mouse model assessed as reduction in LPS-induced paw swelling at 20 mg/kg, po qd followed by LPS addition on day 3 measured after 11 days relative to control; assay type: functional; parameters: scale not given: the % may be the effect or the level left
[29] = AUC in mouse at 6 mg/kg, po; assay type: ADME, organism-based; details: in vivo
[30] = Oral bioavailability in dog at 2 mg/kg; assay type: ADME, organism-based, Canis lupus familiaris; details: in vivo
[31] = test system: Mus musculus; experiment: Antiathritis activity in anticollagen antibody-induced arthritis BALB/c mouse model assessed as reduction in LPS-induced paw swelling at 5 mg/kg, po qd followed by LPS addition on day 3 measured after 11 days relative to control; assay type: functional; parameters: scale not given: the % may be the effect or the level left
[32] = Half life in cynomolgus monkey at 2 mg/kg, iv; assay type: ADME, organism-based, Macaca fascicularis; details: in vivo
[33] = Solubility of the compound in fasted state stimulated intestinal fluid; assay type: ADME; details: fasted state simulated intestinal fluid (FaSSIF)
[34] = Protein binding in monkey plasma; assay type: ADME, cell-free, Macaca mulatta; details: rhesus monkey, read-out: PPB (converted)
[35] = target: T2, Cytochrome P450 2B6 (Homo sapiens, UniProt P20813); experiment: Inhibition of CYP2B6 (unknown origin); assay type: ADME
T2 sequence (P20813 whole entry): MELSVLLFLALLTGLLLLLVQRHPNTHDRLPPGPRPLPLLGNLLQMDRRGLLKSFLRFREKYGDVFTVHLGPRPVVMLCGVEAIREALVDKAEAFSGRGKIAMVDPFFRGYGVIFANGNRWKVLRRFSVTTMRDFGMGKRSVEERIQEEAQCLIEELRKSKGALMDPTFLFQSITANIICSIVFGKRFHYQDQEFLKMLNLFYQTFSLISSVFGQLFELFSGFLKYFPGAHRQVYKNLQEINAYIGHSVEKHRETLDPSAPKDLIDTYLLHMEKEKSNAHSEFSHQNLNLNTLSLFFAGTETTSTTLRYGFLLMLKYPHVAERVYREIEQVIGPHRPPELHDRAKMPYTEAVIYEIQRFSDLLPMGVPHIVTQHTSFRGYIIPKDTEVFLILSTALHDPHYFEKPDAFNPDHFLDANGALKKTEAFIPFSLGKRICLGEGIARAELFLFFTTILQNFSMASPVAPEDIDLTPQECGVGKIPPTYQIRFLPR

[36] = Protein binding in human serum; assay type: ADME; details: read-out: PPB (converted)
[37] = Volume of distribution at steady state in cynomolgus monkey at 2 mg/kg, iv; assay type: ADME, organism-based, Macaca fascicularis; details: in vivo, read-out: Vdss
[38] = Drug metabolism in po dosed rat plasma assessed as isomerization of atropisomeric center after 24 hrs; assay type: ADME, organism-based; details: read-out: Drug metabolism

Cc1c(-c2c(F)cc(C(N)=O)c3[nH]c4c(c23)CC[C@H](C(C)(C)O)C4)cccc1-n1c(=O)c2cccc(F)c2n(C)c1=O (atropisomer R) [BMS-986142]
clearance [1]: 3.2 mL/min/kg
bioavailability [2]: 67%
Cmax [3]: 1.2 µM
MRT [4]: 4.7 h
AUC [5]: 39 µM·h
fraction unbound [6]: 0.009
solubility [7]: < 4 µg/mL
Tmax [8]: 3 h
IC50 [9]: > 10000 nM
IC50 [10]: 8500 nM
IC50 [11]: 89 nM
clearance [12]: 4.1 mL/min/kg
IC50 [13]: 9 nM
IC50 [14]: 4 nM
IC50 [15]: 90 nM
MRT [16]: 5.1 h
solubility [17]: 368 µg/mL (≈ 643 µM)
Papp [18]: 67.3 ×10⁻⁶ cm/s
Vd [19]: 1.3 L/kg
Papp [20]: 72.5 ×10⁻⁶ cm/s
Vd [21]: 3.4 L/kg
IC50 [22]: 5500 nM
Cmax [23]: 4.9 µM
half-life [24]: 13 h
IC50 [25]: > 40000 nM
Tmax [26]: 3 h
AUC [27]: 5 µM·h
Activity [28]: 100%
AUC [29]: 39 µM·h
bioavailability [30]: 100%
Activity [31]: 72%
half-life [32]: 5.1 h
solubility [33]: 18 µg/mL (≈ 31.4 µM)
fraction unbound [34]: 0.012
IC50 [35]: > 40000 nM
fraction unbound [36]: 0.009
Vd [37]: 3 L/kg
metabolised at 24 h [38]: < 2%

From ChEMBL document CHEMBL3856250, “Discovery of 6-Fluoro-5-(R)-(3-(S)-(8-fluoro-1-methyl-2,4-dioxo-1,2-dihydroquinazolin-3(4H)-yl)-2-methylphenyl)-2-(S)-(2-hydroxypropan-2-yl)-2,3,4,9-tetrahydro-1H-carbazole-8-carboxamide (BMS-986142): A Reversible Inhibitor of Bruton's Tyrosine Kinase (BTK) Conformationally Constrained by Two …” (J Med Chem, 2016)
